Measurements from publication PMC11904993, “Humanized Candida and NanoBiT Assays Expedite Discovery of Bdf1 Bromodomain Inhibitors With Antifungal Potential” (Advanced Science, 2025).
Values joined by “and” are separate entries in the source; they are usually repeats but may differ in a detail not shown here. Equal values may be shown once. Read-outs that look alike come from different tables or passages of the source.

Tests used:
[1] = system: Bmh1/Bmh2; assay: NanoBiT assay, control pair; format: cell-based, S. cerevisiae; parameters: Normalized nanoBiT signal: unit of the concentration uncertain; conditions: for Normalized nanoBiT signal: Bmh1-LgBiT, Bmh2-SmBiT, Fig 4C
Description: (§1) Yeast strains were distributed in 96‐well microplates containing SC(MSG)‐U medium (SC‐U medium with 0.1% monosodium glutamate instead of ammonium sulfate as a nitrogen source) and grown at 30 °C. 40 µL of exponentially growing cells were transferred in white 96‐well half‐area microplates (ProxiPlate Plus, Greiner Bio‐One) previously filled with 40 µL per well of SC(MSG) containing 100 µM furimazine. The microplates were then incubated for 10 min in the dark before the luminescence signals were recorded using a microplate reader (Ensight, PerkinElmer). Luminescence measurements were performed for 1 s per well at a distance of 0.1 mm between the plate and the detector. The luminescence values were normalized with the optical density (OD600) of the corresponding cultures. For NanoBiT assays with BET inhibitors, yeast cultures were grown overnight at 30 °C in SC(MSG) medium in the presence of serial dilutions of 24c and I‐BET726. Overnight cultures were diluted 5 fold in SC(MSG) and incubated for 1 h before luminescence was recorded as previously indicated. Luminescence values for each condition were normalized using the average of the luminescence recorded for the Bdf1/Swc4 and Bmh1/Bmh2 controls.

[2] = biological target: T1, Bdf1‐SmBiT/H2A.Z‐LgBiT pair (Saccharomyces cerevisiae, UniProt P35817); assay: NanoBiT assay; format: cell-based, S. cerevisiae; parameters: remaining activity: dose or concentration left out as unconfirmed
T1 construct: expressed in transfected cells; host or cells: S. cerevisiae (H2A.Z-LgBiT strain)
Description: as §1

[3] = system: C. glabrata strains expressing WT and mutant Bdf1; assay: Growth inhibition in liquid media, C. glabrata lab strains; conditions: for %Growth: WT BDF1-flag
Description: Growth on Liquid Media with C. glabrata Lab Strains: Cells were grown at 30 °C in SC+M+C‐U medium (SC medium with 5 mM methionine, 0.25 mM cysteine, without uracil) to an OD600 of 0.5–0.8. […] Plates were incubated at 30 °C and OD600 was measured using a Multiskan FC Microplate Photometer (Thermo Fisher).

[4] = biological target: C. auris Bdf1 BD1 (Candidozyma auris (Candida auris), UniProt A0AAW0VEM6); assay: HTRF assay, inhibition of H4ac4 peptide binding
[5] = read-out: HTRF signal, normalized (Figure 5A data)

T1 sequence (P35817 whole entry): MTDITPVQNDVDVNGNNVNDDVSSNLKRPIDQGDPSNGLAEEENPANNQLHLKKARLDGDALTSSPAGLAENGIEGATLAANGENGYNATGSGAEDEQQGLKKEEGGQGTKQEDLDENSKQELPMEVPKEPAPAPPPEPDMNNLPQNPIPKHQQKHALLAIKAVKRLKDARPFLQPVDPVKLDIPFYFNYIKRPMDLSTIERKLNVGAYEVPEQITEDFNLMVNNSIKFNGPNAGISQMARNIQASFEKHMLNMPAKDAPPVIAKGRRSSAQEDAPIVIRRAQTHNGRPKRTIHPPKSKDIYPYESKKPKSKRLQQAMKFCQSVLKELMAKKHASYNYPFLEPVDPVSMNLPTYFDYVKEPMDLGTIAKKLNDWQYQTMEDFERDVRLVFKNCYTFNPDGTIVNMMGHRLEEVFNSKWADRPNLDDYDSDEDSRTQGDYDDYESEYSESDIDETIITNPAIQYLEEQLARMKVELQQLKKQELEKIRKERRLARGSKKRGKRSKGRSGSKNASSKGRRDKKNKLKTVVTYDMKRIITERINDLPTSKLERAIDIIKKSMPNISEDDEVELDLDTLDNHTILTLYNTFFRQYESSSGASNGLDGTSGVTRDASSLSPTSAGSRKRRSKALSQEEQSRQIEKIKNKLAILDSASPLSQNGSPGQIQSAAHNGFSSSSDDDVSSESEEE
Sequence of C. auris Bdf1 BD1 (A0AAW0VEM6 entry or part of it): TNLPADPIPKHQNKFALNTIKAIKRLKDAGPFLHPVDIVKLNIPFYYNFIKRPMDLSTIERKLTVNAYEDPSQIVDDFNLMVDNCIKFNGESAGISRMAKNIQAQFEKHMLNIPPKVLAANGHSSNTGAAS

Which results are given for `CC(=O)N1c2ccc(-c3ccc(C(=O)O)cc3)cc2C(Nc2ccc(Cl)cc2)CC1C` (centres unmarked) [I-BET726]?
Normalized nanoBiT signal ([1]; 0.09766 (unit uncertain)): 105% and 106% and 103% and 100%; Normalized nanoBiT signal ([1]; 0.19531 (unit uncertain)): 105% and 94% and 98%; Normalized nanoBiT signal ([1]; 0.39063 (unit uncertain)): 110% and 103% and 98% and 96%; Normalized nanoBiT signal ([1]; 0.78125 (unit uncertain)): 109% and 110% and 93% and 102%; Normalized nanoBiT signal ([1]; 1.56250 (unit uncertain)): 115% and 111% and 95% and 99%; Normalized nanoBiT signal ([1]; 3.12500 (unit uncertain)): 112% and 118% and 104% and 101%; inhibition of NanoBiT signal, Bmh1/Bmh2 ([1]; unrelated control pair): not observed; remaining activity at 24.41 µM ([2]; Bdf1-SmBiT, Htz1-LgBiT, 0.02441 mM, Fig 4C, read-out: Normalized nanoBiT signal): 92%; remaining activity at 97.66 µM ([2]; Bdf1-SmBiT, Htz1-LgBiT, 0.09766 mM, Fig 4C, read-out: Normalized nanoBiT signal): 93%; remaining activity at 195.31 µM ([2]; Bdf1-SmBiT, Htz1-LgBiT, 0.19531 mM, Fig 4C, read-out: Normalized nanoBiT signal): 96%; remaining activity at 390.63 µM ([2]; Bdf1-SmBiT, Htz1-LgBiT, 0.39063 mM, Fig 4C, read-out: Normalized nanoBiT signal): 92%; remaining activity at 781.25 µM ([2]; Bdf1-SmBiT, Htz1-LgBiT, 0.78125 mM, Fig 4C, read-out: Normalized nanoBiT signal): 83%; remaining activity at 1562.5 µM ([2]; Bdf1-SmBiT, Htz1-LgBiT, 1.56250 mM, Fig 4C, read-out: Normalized nanoBiT signal): 65%; remaining activity at 3125 µM ([2]; Bdf1-SmBiT, Htz1-LgBiT, 3.12500 mM, Fig 4C, read-out: Normalized nanoBiT signal): 46%; remaining activity ([2]; Bdf1-SmBiT, Htz1-LgBiT, […], Fig 4C, read-out: Normalized nanoBiT signal): 39%; IC50 ([2]; mean and s.d., 4 independent experiments, read-out: IC50 (μM) (ScBdf1 / H2A.Z) NanoBiT signal): 2.1 µM; remaining activity at 48.83 µM ([2]; read-out: Normalized nanoBiT signal): 96%; %Growth ([3]; Fig 3E, 50 µM, Exp 1-3): 24% and 29% and 27%; %Growth ([3]; Fig 3F, 0.0412 µM): 86.79% and 92.92% and 93.05%; %Growth ([3]; Fig 3F, 0.1235 µM): 78.65% and 90.9% and 90.48%; %Growth ([3]; Fig 3F, 0.3704 µM): 70.78% and 76.63% and 84.08%; %Growth ([3]; Fig 3F, 1.1111 µM): 65.69% and 73.22% and 70.81%; %Growth ([3]; Fig 3F, 3.3333 µM): 37.23% and 49.84% and 57.55%; %Growth ([3]; Fig 3F, 10 µM): 20.2% and 22.05% and 23.51%; EC50 ([3]; Nakaseomyces glabratus, read-out: EC50 (μM) growth inhibition, Fig 3F, strain BDF1-FLAG (WT Bdf1)): 3.24 ± 0.75 µM; EC50 ([3]; Nakaseomyces glabratus, read-out: EC50 (μM) growth inhibition, strain bdf1-Y166F (active BD: BD2)): 1.98 ± 0.36 µM; EC50 ([3]; Nakaseomyces glabratus, read-out: EC50 (μM) growth inhibition, strain bdf1-Y343F (active BD: BD1)): ~25 µM; EC50 ([3]; Nakaseomyces glabratus, read-out: EC50 (μM) growth inhibition, strain bdf1-bd1Δ (active BD: BD2)): 1.17 ± 0.1 µM; EC50 ([3]; Nakaseomyces glabratus, read-out: EC50 (μM) growth inhibition, strain bdf1-bd2Δ (active BD: BD1)): 13.7 ± 4.9 µM; Growth (%) ([3]; WT BDF1, 20 µM, Fig 5B): 34%; EC50 ([3]; read-out: EC50 (μM) growth inhibition, Fig 3F, strain BDF1-FLAG (WT Bdf1)): 3 µM and 3.2 µM; remaining activity at 0.0021 µM ([4]; CauBD1, 2.10 nM, read-out: HTRF signal, normalized (Figure 5A data)): 105%; remaining activity at 0.01311 µM ([4]; CauBD1, 13.11 nM, read-out: HTRF signal, normalized (Figure 5A data)): 103%; remaining activity at 0.03277 µM ([4]; CauBD1, 32.77 nM, read-out: HTRF signal, normalized (Figure 5A data)): 106%; remaining activity at 0.2048 µM ([4]; CauBD1, 204.8 nM, read-out: HTRF signal, normalized (Figure 5A data)): 107%; remaining activity at 1.28 µM ([4]; CauBD1, 1280 nM, read-out: HTRF signal, normalized (Figure 5A data)): 100%; remaining activity at 3.2 µM ([4]; CauBD1, 3200 nM, read-out: HTRF signal, normalized (Figure 5A data)): 74.9%; remaining activity at 8 µM ([4]; CauBD1, 8000 nM, read-out: HTRF signal, normalized (Figure 5A data)): 34.7%; IC50 ([4]; Fig 5A, four replicates, read-out: IC50 (μM) BD1, C. aur. Bdf1): 14.7 ± 0.1 µM; remaining activity at 0.00524 µM [4, 5]: 103%; remaining activity at 0.512 µM [4, 5]: 103%
